Paper PMC10442743 (Dalton Transactions (Cambridge, England : 2003), 2023)
Read-outs that look alike come from different tables or passages of the source.

Key:
[1] = system: MDA-MB-231; experiment: MTT cytotoxicity assay, MDA-MB-231 cells; assay type: cell-based, human; conditions: MTT
Protocol: (§1) The cytotoxicity of 1–11CA was assessed against human breast cancer MCF-7 and MDA-MB-231 cells, and non-tumorigenic adherent mouse fibroblast connective tissue L929 cells using the MTT assay after 24 and 72 h (Tables S5 ^† and Table 1, respectively).
(§2) Then, necessary dilutions were made using the supplement DMEM, to prepare the range of tested concentrations. Since DMSO was used to solubilize the compounds, a supplemented DMEM + DMSO (at the same percentage as in the sequential dilutions) was considered as a control in the 3-[4,5-dimetylthiazole-2-yl]-2,5-diphenyltetrazolium bromide (MTT) assay.
(§3) L929, MCF-7, and MDA-MB-231 cell lines were cultured in DMEM supplemented with 10% (v/v) FBS and 1% (v/v) of penicillin–streptomycin. The cells were incubated in a humidified chamber at 37 °C under saturated air with a 5% CO2 atmosphere. Cells were passed at 80%–90% of confluency with 0.25% (w/v) trypsin and the cell culture media was changed every 2–3 days.
(§4) The compounds were tested on two breast cancer cell lines (MCF-7 and MDA-MB-231) and L929 fibroblasts, used as a reference for the safety evaluation according to ISO 10993-1:2009 “Biological evaluation of medical devices”. Cells were seeded on sterile 96-well plates at 50 000 cells per well (L929) and 20 000 cells per well (MCF-7 and MDA-MB-231) in supplemented DMEM medium (100 μL) for 24 h. The culture medium was removed and new media containing different concentrations of the compounds (0–1000 μM) was added to the wells (100 μL). Control cells were incubated under the same conditions in the absence of a compound. Cells were incubated for 24 and 72 h under the same conditions described above. Then, the medium was removed, and the cells were incubated with 3-(4,5-dimethylthiazol-2-yl)-2,5-diphenyltetrazolium bromide (MTT; 0.5 mg mL^−1) for 3 h. After this time, the medium was removed, and formazan crystals were solubilized with DMSO (100 μL per well). The absorbance in each well was read on a SynergyTM HT Multimode microplate reader (BioTek Instruments; Winooski, VT, USA) at 570 and 630 nm (for background correction), and the cell viability was calculated according to the following equation (eqn (1)):1 [drawing 3] where OD570(sample) and OD630(sample) are the optical densities of the solutions containing the compounds and OD570(control) and OD630(control) are controls without compound.
(§5) Each apoptosis value determination represents the mean ± standard deviation of 2 independent assays. The IC50 values were obtained using GraphPad Prism software and ANOVA (analysis of variance) was performed to determine the statistical difference between the IC50 values of different cell lines.

[2] = system: L929; experiment: MTT cytotoxicity assay, L929 fibroblasts (and selectivity index); assay type: cell-based, mouse; conditions: for SI (selectivity index): IC50 L929 divided by average IC50 of the breast cancer cell lines; for IC50: MTT
Protocol: as §1, §2, §3, §4, §5

[3] = n-octanol/water partition coefficient (shake-flask, ICP-MS)
Protocol: The saturated solutions were filtered
(DigiPREP Jr. 15ml, 40 Pos, SCP Science). The digestion program was the following: 15
After the digestion, the sample
Samples were further diluted
range. All measurements were performed in triplicates.
lipophilicity of a compound. This assay was performed following the Shake-flask method
organic and aqueous phase. Aliquots of each phase were taken and analyzed separately
range. The partition coefficient was calculated as P!"=
respectively. All measurements were performed in triplicates.

[4] = system: pBR322 DNA
Protocol: The interaction of 11Cl with plasmid DNA was also assessed by visualizing the relaxation of the plasmid using agarose gel electrophoresis (Fig. 4). Different concentrations of the 11Cl were incubated with pBR322 DNA at 37 °C for 24 h and then analyzed by gel electrophoresis (Fig. 4).
Assays were performed using 1.2% (w/v) agarose gels. A plasmid pBR322 DNA was purchased from Thermofisher Scientific® at 0.5 μg μL^−1 concentration in phosphate buffer 50 mM (pH 7.4). A 20 μL portion containing 0.125 μg μL^−1 of DNA in 10 mM Tris-HCl (pH 7.6) and 1 mM EDTA was incubated with increasing volumes of the stock solution of 11Cl (1 mM in DMSO) at ri values ranging from 0.05 to 0.5 (ri = [complex]/[no. nucleotide]). […] 20 μL of the sample was loaded in the agarose gel (1.2% w/v), and electrophoresis was carried out for a period of 100 min at 40 V in TAE 1× (Tris-acetate/EDTA) buffer. After electrophoresis, the gel was immersed in 200 mL of TAE 1× buffer containing 20 μL of a stock solution of SYBR safe for 30 min to stain the DNA. Then, the gel was washed with Mili Q water for 10 min and the stained gel was analyzed with a blue light in a Safe Imager™ 2.0 (Invitrogen).

[5] = Solubility in water (ICP-MS); conditions: 25 °C, limit of detection = 5 ppt
[6] = Stability in solution (ESI-MS, NMR); conditions: 1 mM
Protocol: The stability of 11CA under pseudo-physiological conditions was assessed using ESI-MS and ^1H and ^31P NMR spectroscopy.
Stability studies were performed on 11CA over 72 h at 37 °C.
The stability of 11Cl was also monitored over
72 h via 1H and 31P NMR spectroscopy. The complex was fully dissolved in d6-DMSO,
diluted with D2O to reach 10% d6-DMSO in D2O (1 mM final concentration) and, finally,
the pD was adjusted to 7.2 ± 0.1 (neutral conditions). Furthermore, the stability of 11Cl
and 11BPh4 was also assessed in 100% d6-DMSO (1 mM final concentration) as a highly

[7] = molecular target: bovine serum albumin (BSA) (Bos taurus, UniProt P02769); experiment: BSA binding assay (tryptophan fluorescence quenching)
Protocol: BSA (16 μM) in 10 mM Tris-HCl pH 7.6 + 1 mM EDTA solution and varying concentrations of 11Cl (0–32 μM) were incubated at 37 °C for 24 h. Afterward, the fluorescence spectra were measured for each solution between 300 and 500 nm (λex = 280 nm). The intensity at λmax (340 nm) was recorded.

[8] = system: ct-DNA; experiment: Competitive DNA binding assay with fluorescent probes (DAPI, MG, PI)
Protocol: From the obtained fluorescence data, apparent DNA binding constants, Kapp, were calculated according to the competitive binding model described by Tse and Boger.[66]
Emission intensity measurements were performed using a SpectraMax M5e reader at room temperature. A 50 μM (bp) of ct-DNA was pre-incubated with the groove binding agents (MG and DAPI) (2 μM) and the intercalating agent propidium iodide (2 μM) for 30 min at 37 °C, to allow full interaction of the dyes into the ctDNA. Increasing amounts of 11Cl (0–100 μM) were added to this mixture and the final samples were incubated for 24 h at 37 °C. After incubation, the emission spectra were recorded at excitations of 633, 358, and 535 nm for the measurements of MG, DAPI, and PI, respectively. Quenching parameters were obtained by applying the Stern–Volmer equation (eqn (2)). The apparent binding constants, Kapp, were calculated according to the competitive binding model described by Tse and Boger[66] using eqn (4):[90]4 Kprobe[probe] = Kappc50where Kprobe is the binding constant of the probe, 9 × 10^5 and 5 × 10^6 M^−1 for MG[91] and DAPI,[92] respectively; [probe] is the concentration of probe used, 10 μM for both MG and DAPI; and c50 is the complex concentration when the fluorescence intensity of the probe is 50%. This value is obtained from the plot F0/F vs. [Q] when F0/F = 2.

[9] = system: ctDNA; experiment: Circular dichroism / induced circular dichroism with calf thymus DNA
Protocol: Calf thymus (ct) DNA (Merck®) was used to perform the circular dichroism assay to detect conformational changes in the ctDNA induced by the compounds. CD spectral data was collected on a Chirascan™ V100 (Applied Photophysics) spectropolarimeter equipped with a large area Avalanche photodiodes detector and computer-controlled thermoelectrical cell holder using a 1 cm path length quartz cuvette. CD spectra of ctDNA in the absence and presence of different concentrations of 11Cl were recorded at wavelengths ranging from 320 to 190 nm under constant nitrogen flush at 25 °C. For each CD spectrum, the number of scans was set to 5, and spectral data were collected at 0.1 ms intervals. Additionally, methyl green (MG) and 4′,6-diamidino-2-phenylindole (DAPI), and propidium iodide (PI) were analyzed as minor and major groove binders and as an intercalator, respectively, to help identify the binding mode of 11Cl to DNA. Samples were prepared in 10 mM Tris-HCl buffer (pH 7.6) with 1 mM EDTA. The concentration of ctDNA was fixed at 100 μM (concerning base pairs) and the ctDNA to 11Cl ratio was varied between 0 and 1. The samples were incubated for 24 h at 37 °C and then analyzed in the CD spectropolarimeter.

[10] = complex concentration at 50% probe fluorescence, Table S9
[11] = ctDNA, DAPI competitive binding, Table S9
[12] = ctDNA, MG competitive binding, Table S9

Sequence of bovine serum albumin (BSA) (P02769 25-607): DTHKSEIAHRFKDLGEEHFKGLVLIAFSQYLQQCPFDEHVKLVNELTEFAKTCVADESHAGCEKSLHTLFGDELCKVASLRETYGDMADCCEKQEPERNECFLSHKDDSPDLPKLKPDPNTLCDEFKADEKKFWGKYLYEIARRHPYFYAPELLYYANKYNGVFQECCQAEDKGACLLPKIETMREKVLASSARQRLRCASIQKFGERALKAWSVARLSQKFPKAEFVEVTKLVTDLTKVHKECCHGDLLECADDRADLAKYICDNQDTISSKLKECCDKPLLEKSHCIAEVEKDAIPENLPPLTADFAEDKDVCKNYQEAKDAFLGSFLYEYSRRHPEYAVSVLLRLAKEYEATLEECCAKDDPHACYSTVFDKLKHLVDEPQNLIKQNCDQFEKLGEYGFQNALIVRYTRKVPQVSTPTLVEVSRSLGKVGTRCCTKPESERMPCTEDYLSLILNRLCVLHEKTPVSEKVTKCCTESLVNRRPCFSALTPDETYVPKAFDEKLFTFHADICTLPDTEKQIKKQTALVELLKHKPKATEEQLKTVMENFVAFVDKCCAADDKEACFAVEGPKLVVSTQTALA

In the case of `Cc1ccccc1.[Cl-].[Cl][Ru+]([PH](c1ccccc1)(c1ccccc1)c1ccccc1)[PH](c1ccccc1)(c1ccccc1)c1ccccc1` [Compound 11Cl, [Ru(η^6-toluene)(PPh3)2Cl]Cl], the IC50 ([1]; 24 h exposure, read-out: IC50 (µM) (average ± standard deviation) 24 h MDA-MB-231) is reported as 5.5 ± 0.6 µM, the IC50 ([1]; 72 h exposure, read-out: IC50 (μM) (average ± standard deviation) 72 h MDA-MB-231) is reported as 0.086 ± 0.006 µM and the “selectivity for the breast cancer cell lines compared to the healthy ones” value [2] is reported as ~10 fold. For the same compound, the “SI (selectivity index)” value ([2]; 24 h) was 1.1, the IC50 ([2]; 24 h exposure, read-out: IC50 (µM) (average ± standard deviation) 24 h L929) was 5.3 ± 0.7 µM and the “SI (selectivity index)” value ([2]; 72 h) was 11.8. The IC50 ([2]; 72 h exposure, read-out: IC50 (μM) (average ± standard deviation) 72 h L929) was 0.87 ± 0.05 µM, the LogPow [3] was 1.48 ± 0.29 and the “stabilization of the linear form of plasmid DNA” value ([4]; 37 °C, 24 h, ri 0.01–0.5) was “did not induce the stabilization of the linear form”. The “precipitation of DNA” value ([4]; all studied concentrations) was “no precipitation was observed”, the “ri ratio from which alterations in the supercoiled structure (tailing, slight retardation) appear” value ([4]; ri = [11Cl]/[DNA bp], 37 °C, 24 h) was ≥ 0.2 and the “Solubility (μM)” value [5] was 528 ± 88 µM. The “Solubility (μg/mL)” value [5] was 416 ± 70 µg/mL, the “stability by NMR spectroscopy in neutral conditions” value ([6]; 10% d6-DMSO in D2O, pD 7.2, 72 h) was “No signs of hydrolysis or decomposition were observed” and the “stability in DMSO (NMR)” value ([6]; 100% d6-DMSO, 72 h) was “No changes were observed”. For the same compound, the “bimolecular quenching rate kq (BSA)” value ([7]; BSA 16 μM, 37 °C, 24 h) was 1.9e+12 M⁻¹ s⁻¹, the “binding constant to BSA” value ([7]; BSA 16 μM, 37 °C, 24 h) was 560000 M⁻¹ and the “KSV (BSA)” value ([7]; Table S8) was 1.13 ± 0.08 104 M−1. For the same compound, the “kq (BSA)” value ([7]; Table S8) was 1.88 ± 0.14 1012 M−1, the “n (number of binding sites, BSA)” value ([7]; Table S8) was 1.4 and the “n (number of binding sites in BSA)” value ([7]; estimated value) was ~1. The “C50, DAPI probe” value [8, 10] was 1.1 10−4 M, the “C50, MG probe” value [8, 10] was 2.1 10−4 M and the “KSV, DAPI probe” value [8, 11] was 8.8 ± 0.6 103 M−1. The “Kapp, DAPI probe” value [8, 11] was 4.4 ± 0.3 105 M−1, the “kq, DAPI probe” value [8, 11] was 3.3 ± 0.3 1012 M−1 and the “KSV, MG probe” value [8, 12] was 4.8 ± 0.7 103 M−1. For the same compound, the “Kapp, MG probe” value [8, 12] was 0.43 ± 0.04 105 M−1, the “kq, MG probe” value [8, 12] was 0.48 ± 0.07 1012 M−1 and the “quenching of PI (intercalator probe) fluorescence” value ([8]; ctDNA, probe PI) was “no linear quenching was observed”. The “preference towards the minor groove” value ([8]; from difference of Kapp values) was 10 fold, the “CD band 210 nm, intensity change” value ([9]; DNA, 24 h, 37 °C) was “decrease in the ellipticity” and the “CD band 210 nm, wavelength shift” value ([9]; DNA, 24 h, 37 °C) was “remained unchanged”. The “CD band 220 nm (hydrogen bonding), intensity change” value ([9]; DNA, 24 h, 37 °C) was “increase in the circularity”, the “CD band 220 nm (hydrogen bonding), wavelength shift” value ([9]; DNA, 24 h, 37 °C) was “small bathochromic (red) shift” and the “CD band 246 nm (helicity), intensity change” value ([9]; DNA, 24 h, 37 °C) was “decrease in the ellipticity”. For the same compound, the “CD band 246 nm (helicity), wavelength shift” value ([9]; DNA, 24 h, 37 °C) was “remained unchanged”, the “CD band 268−280 nm (base-pair stacking interactions), intensity change” value ([9]; DNA, 24 h, 37 °C) was “decrease in the ellipticity” and the “CD band 268−280 nm (base-pair stacking interactions), wavelength shift” value ([9]; DNA, 24 h, 37 °C) was “remained unchanged”. The “decrease of the intensity of the ICD bands of DAPI” value ([9]; DNA–DAPI after treatment with 11Cl) was 35% and the “decrease of the intensity of the ICD bands of MG” value ([9]; DNA–MG after treatment with 11Cl) was 20%.
